Experiment [1] addresses Cyclin-dependent kinase 14 (Homo sapiens) (UniProt O94921). Conditions: at 10 µM.
The target of experiment [2] is T1, Serine/threonine-protein kinase 3 (Homo sapiens) (UniProt Q13188).
T1 sequence (whole entry): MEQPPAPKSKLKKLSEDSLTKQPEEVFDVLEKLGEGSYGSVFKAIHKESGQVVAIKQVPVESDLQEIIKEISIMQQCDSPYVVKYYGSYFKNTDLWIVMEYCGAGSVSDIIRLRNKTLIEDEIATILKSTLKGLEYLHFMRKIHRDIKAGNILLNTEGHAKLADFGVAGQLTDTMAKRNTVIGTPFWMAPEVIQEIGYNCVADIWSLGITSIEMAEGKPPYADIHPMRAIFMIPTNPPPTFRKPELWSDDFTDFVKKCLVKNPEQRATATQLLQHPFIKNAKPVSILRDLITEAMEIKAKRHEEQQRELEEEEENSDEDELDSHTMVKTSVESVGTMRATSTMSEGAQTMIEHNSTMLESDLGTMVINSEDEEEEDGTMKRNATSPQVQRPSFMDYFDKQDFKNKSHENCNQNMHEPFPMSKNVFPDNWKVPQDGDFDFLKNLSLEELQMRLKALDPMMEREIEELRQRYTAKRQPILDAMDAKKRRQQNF
Put plainly: Selectivity interaction (KinomeScan (DiscoverX)) EUB0001079a STK3. The settings on record: at 1 µM.

The target in experiment [3] is Tyrosine-protein kinase JAK1 (Homo sapiens, UniProt P23458). The experiment in a line: Selectivity interaction (ActivX KiNativ screen (kinase selectivity in THP-1 cell lysates)) EUB0000639a JAK1. It counts as subcellular. The settings on record: lysate, at 0.01 µM.
Chain of Tyrosine-protein kinase JAK1 (P23458 whole entry): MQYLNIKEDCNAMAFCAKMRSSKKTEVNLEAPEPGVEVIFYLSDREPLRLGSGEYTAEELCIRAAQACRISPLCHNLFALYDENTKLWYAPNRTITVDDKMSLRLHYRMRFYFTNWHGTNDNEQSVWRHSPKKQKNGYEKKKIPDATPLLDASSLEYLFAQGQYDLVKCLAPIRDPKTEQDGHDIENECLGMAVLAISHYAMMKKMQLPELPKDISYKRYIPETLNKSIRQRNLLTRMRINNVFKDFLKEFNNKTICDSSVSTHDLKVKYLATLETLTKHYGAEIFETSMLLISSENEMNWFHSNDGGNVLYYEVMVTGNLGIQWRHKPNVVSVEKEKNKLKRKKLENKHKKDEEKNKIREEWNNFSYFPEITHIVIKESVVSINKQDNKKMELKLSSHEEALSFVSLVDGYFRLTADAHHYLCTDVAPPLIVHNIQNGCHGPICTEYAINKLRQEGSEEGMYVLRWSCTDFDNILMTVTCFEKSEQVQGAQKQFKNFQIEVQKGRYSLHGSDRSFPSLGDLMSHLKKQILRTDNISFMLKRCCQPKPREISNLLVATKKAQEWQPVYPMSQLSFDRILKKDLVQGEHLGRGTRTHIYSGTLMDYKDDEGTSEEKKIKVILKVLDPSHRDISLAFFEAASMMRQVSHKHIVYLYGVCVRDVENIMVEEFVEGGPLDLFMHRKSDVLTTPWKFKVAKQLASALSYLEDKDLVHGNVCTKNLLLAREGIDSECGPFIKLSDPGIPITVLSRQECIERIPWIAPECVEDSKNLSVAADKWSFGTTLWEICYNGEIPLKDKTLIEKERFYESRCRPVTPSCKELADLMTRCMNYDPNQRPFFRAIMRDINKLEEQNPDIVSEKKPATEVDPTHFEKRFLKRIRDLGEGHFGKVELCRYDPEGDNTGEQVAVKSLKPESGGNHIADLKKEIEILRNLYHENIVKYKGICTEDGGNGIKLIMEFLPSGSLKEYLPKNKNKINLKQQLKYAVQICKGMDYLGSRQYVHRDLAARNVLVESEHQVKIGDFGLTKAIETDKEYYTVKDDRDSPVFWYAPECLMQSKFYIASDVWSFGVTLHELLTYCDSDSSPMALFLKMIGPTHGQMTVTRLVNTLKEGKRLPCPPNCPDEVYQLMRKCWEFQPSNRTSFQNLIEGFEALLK
Experiment [4] concerns the target T2, Serine/threonine-protein kinase 17A (Homo sapiens) (UniProt Q9UEE5).
T2 sequence (whole entry): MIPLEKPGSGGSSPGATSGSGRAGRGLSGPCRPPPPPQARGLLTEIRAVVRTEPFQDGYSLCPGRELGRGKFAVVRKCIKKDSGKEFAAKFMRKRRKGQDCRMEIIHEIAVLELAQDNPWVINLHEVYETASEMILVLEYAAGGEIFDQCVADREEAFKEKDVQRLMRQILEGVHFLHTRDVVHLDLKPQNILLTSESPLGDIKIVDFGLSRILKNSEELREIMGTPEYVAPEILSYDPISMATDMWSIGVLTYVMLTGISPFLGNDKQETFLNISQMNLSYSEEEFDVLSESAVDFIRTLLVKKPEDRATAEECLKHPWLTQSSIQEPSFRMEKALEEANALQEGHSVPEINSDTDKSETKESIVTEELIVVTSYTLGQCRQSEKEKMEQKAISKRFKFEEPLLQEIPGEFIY
The experiment in a line: Selectivity interaction (Kinase panel (Invitrogen)) EUB0000639a STK17A. The settings on record: at 200 nM.

In experiment [5] the target is T3, Mitogen-activated protein kinase kinase kinase 3 (Homo sapiens) (UniProt Q99759).
T3 sequence (whole entry): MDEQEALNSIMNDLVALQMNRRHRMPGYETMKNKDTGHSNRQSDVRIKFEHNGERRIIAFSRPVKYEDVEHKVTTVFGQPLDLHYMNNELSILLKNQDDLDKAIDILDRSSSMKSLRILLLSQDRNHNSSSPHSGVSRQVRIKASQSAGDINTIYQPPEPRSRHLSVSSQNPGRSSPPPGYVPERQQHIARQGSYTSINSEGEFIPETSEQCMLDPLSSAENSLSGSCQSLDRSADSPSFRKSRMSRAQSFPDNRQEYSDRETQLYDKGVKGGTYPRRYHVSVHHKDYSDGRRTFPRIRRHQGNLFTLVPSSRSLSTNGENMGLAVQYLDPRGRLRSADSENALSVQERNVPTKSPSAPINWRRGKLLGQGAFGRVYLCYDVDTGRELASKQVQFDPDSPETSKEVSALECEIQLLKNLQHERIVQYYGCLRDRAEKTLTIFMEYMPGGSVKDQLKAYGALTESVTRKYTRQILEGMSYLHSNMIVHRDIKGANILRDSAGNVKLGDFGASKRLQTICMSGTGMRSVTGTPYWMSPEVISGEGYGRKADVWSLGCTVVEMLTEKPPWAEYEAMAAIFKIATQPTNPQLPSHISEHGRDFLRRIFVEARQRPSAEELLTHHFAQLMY
The experiment in a line: Selectivity interaction (KinomeScan (DiscoverX)) EUB0000229b MAP3K3. The settings on record: at 10 µM.

The target of experiment [6] is T4, Membrane-associated tyrosine- and threonine-specific cdc2-inhibitory kinase (Homo sapiens) (UniProt Q99640).
T4 sequence (whole entry): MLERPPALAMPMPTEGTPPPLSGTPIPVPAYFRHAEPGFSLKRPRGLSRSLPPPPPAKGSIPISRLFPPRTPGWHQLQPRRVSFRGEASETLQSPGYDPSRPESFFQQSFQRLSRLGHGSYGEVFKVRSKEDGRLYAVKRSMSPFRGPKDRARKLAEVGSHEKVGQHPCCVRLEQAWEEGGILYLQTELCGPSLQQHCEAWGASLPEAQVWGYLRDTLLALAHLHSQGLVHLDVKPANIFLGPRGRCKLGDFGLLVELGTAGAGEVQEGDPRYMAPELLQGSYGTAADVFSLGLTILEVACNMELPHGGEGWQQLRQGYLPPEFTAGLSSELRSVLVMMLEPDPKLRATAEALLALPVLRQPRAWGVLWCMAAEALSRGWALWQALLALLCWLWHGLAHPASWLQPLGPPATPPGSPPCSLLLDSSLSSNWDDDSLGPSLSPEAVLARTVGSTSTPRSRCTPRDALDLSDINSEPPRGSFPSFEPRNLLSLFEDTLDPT
Put plainly: Selectivity interaction (KinomeScan (DiscoverX)) EUB0001619a PKMYT1. Conditions: at 1 µM.

Drawing on ChEMBL document CHEMBL5465560, “Selectivity Literature for EUbOPEN Chemogenomic Library” (2024), this text covers % of control, % of inhibition and % binding for 5 compounds.

SMILES strings stand for the structures.

Chain of Cyclin-dependent kinase 14 (Homo sapiens) (O94921 whole entry): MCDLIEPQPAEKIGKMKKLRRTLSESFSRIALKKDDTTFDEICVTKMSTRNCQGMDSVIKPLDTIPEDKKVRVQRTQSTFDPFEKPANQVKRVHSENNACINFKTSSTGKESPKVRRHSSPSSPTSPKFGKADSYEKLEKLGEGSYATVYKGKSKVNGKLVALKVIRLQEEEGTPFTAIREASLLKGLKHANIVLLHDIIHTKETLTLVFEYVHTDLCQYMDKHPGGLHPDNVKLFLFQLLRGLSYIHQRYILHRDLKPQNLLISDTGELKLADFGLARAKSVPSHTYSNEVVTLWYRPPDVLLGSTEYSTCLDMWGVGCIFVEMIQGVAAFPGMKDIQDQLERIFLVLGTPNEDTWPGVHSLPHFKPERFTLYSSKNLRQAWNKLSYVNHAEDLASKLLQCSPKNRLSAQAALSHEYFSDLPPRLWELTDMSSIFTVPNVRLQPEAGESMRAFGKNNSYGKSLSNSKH

`Cc1cc([C@@H](C)Nc2ccccc2C(=O)O)c2nc(N3CCOCC3)cc(=O)n2c1` [AZD-6482] yielded a % of control in experiment [1] of 100%.

Take `Nc1cnc(N2CCc3cc(S(=O)(=O)Nc4c(F)cc(Cl)cc4F)cc(N4CCCC4=O)c32)nc1` [TP-020n]: the % of control in experiment [2] came to 96%. Consider `CC[C@@H]1[C@H](F)C(=O)N[C@@H]1COc1nccc2cc(C(N)=O)c(OC)cc12` [ZIMLOVISERTIB], for which the % of inhibition in experiment [3] was -1.9%; in experiment [4], 56.9%.

Take `COc1cc(N(C)c2ccnc3ccc(C(F)(F)F)cc23)cc(OC)c1OC`: the % binding in experiment [5] was determined as 89%. For the compound `N#Cc1cccc(-c2c[nH]c3ncnc(N4CCOCC4)c23)c1`, the % of control in experiment [6] came out at 73%.
